{"source": "patent US9045505B2", "about": "“Nitric oxide donors” (University of Otago, priority 2006, dated 2015)", "key": {"liver mitochondria [1]": {"test_system": "liver mitochondria", "test": "S-nitrosation of mitochondrial protein thiols (chemiluminescence SNO assay)", "assay_type": "biochemical, rat", "details": "500 μM", "procedure": "FIG. 11 is a series of graphs showing S-nitrosation of mitochondrial thiols by MitoSNAP. (a) Time course of S-nitrosation of mitochondrial proteins by MitoSNAP. Liver mitochondria (1 mg protein) were incubated in 1 ml KCl buffer supplemented with rotenone and succinate in the presence of 5 μM MitoSNAP. At various times mitochondria were treated with 10 mM N-ethylmaleimide (NEM), isolated by centrifugation and the S-nitrosothiol content assessed. Data are of a typical experiment showing means±range of duplicate samples for each time point, each measured in duplicate. The experiment was repeated twice. (b) S-nitrosation of mitochondrial proteins by different concentrations of MitoSNAP and SNAP. Aliquots of liver mitochondria were incubated with the indicated concentrations of MitoSNAP or SNAP for […] in the presence or absence of 500 nM FCCP and then assessed for S-nitrosothiol content as in (a). For the +NEM sample, 10 mM NEM was added to the mitochondria and 1 min later 5 μM MitoSNAP was added and incubated for a further 2.5 min. Data are of a typical experiment showing means±range of duplicate samples for each time point, each measured in duplicate. The experiment was repeated twice. (c) S-nitrosation of cellular protein thiols by MitoSNAP. C2C12 cells were preincubated for 5 min in 2 ml cell culture medium containing either 20 μM FCCP or DMSO carrier, then 5 μM MitoSNAP or SNAP was added. After further incubation for 5 min at 37° C. in the dark, the medium was removed and the content of S-nitrosated proteins was measured. Data are means±range of the duplicate determinations. […] (d) S-nitrosation of a mitochondria-enriched cell subfraction. C2C12 cells were preincubated for 5 min in cell culture medium containing either 20 μM FCCP or dimethylsulfoxide (DMSO) carrier, then 5 μM MitoSNAP was added. After 5 min at 37° C. in the dark, the medium was removed and the cells were processed to isolate a mitochondria-enriched fraction and S-nitrosated protein was then determined Data are mean±sem of triplicate determinations (+MitoSNO1), or mean±range of duplicate determinations (+FCCP). (e & f) Visualisation of S-nitrosated mitochondrial proteins by copper/ascorbate-dependent labelling of thiols with a Cy3 fluorophore. Liver (e) or heart (f) mitochondria (1 mg protein) were incubated in 1 ml KCl buffer supplemented with rotenone and succinate in the presence of no additions, 10 μM MitoSNAP or 500 μM diamide for 5 min. S-nitrosated thiols were then selectively tagged with Cy3 maleimide and protein (10 μg) was then separated on a 12.5% SDS PAGE gel which was stained with coomassie blue and scanned for Cy3 fluorescence. The Cy3 fluorescence (SNO) and coomassie staining (coomassie) of each gel is shown.\nFIG. 13 is a trace and graph showing limited S-nitrosation of mitochondria by DetaNONOate. […] Where indicated 500 μM DetaNONOate was added and the concentration of NO^• was measured over time, before 5 μM OxyHb was added. […] Then protein pellets were resuspended and processed for analysis of protein S-nitrosothiols. Control incubations in the presence of 10 mM NEM were also carried out. Data are means±range of two independent experiments each being the average of four mitochondrial incubations.\nNitrite, nitric oxide and S-nitrosothiol measurements. Nitrite was analyzed by the Griess assay (Molecular Probes). Nitric oxide was measured using an NO^• electrode (World Precision Instruments Ltd, UK) connected to an Apollo 4000 Free Radical Analyser. The electrode was inserted into a stirred, sealed 3 ml chamber with a Clark type O2 electrode (Rank Brothers, UK) built into its base and was thermostatted at 37° C. The NO^• electrode was calibrated by adding SNAP to argon-purged, saturated CuCl. OxyHb was prepared by reduction of bovine methemoglobin with sodium dithionite."}, "rat liver mitochondria": {"test_system": "rat liver mitochondria", "test": "Membrane potential-dependent uptake into isolated mitochondria (TPP-selective electrode)", "assay_type": "biochemical", "procedure": "FIG. 8 is a trace showing the uptake of MitoSNAP and MitoNAP by energized mitochondria measured using an ion-selective electrode. For (a) and (b) mitochondria (2 mg protein/ml) were incubated in KCl buffer supplemented with rotenone in a stirred 3 ml chamber thermostatted at 37° C. and shielded from ambient light. An electrode selective for the TPP cation was inserted and calibrated by five sequential 1 μM additions of MitoNAP (a) or MitoSNAP (b). Succinate (10 mM) was then added to energize the mitochondria, followed by the uncoupler FCCP (0.5 μM). Rapid uptake of MitoNAP by energized mitochondria was observed and this was reversed by abolishing the membrane potential with the uncoupler FCCP (a). Energised mitochondria also rapidly accumulated MitoSNAP (b). However, in contrast to MitoNAP, uncoupling apparently led to only partial release of the accumulated MitoSNAP (b). This apparent incomplete release of MitoSNAP on uncoupling is presumably because MitoSNAP is converted to MitoNAP within mitochondria and this generates a different response from the electrode.\n(§1) Mitochondrial incubations were usually in KCl buffer (120 mM KCl, 10 mM HEPES, 1 mM EGTA, 100 μM N,N-bis(2-bis[carboxymethyl]aminoethyl) glycine (DTPA) and 10 μM neocuproine, pH 7.2) with 10 mM succinate and 4 μg/ml rotenone in the dark at 37° C., unless stated otherwise. An electrode selective for the TPP moiety of MitoSNAP and MitoNAP was made and used as described previously (Asin-Cayuela, J., Manas, A. R., James, A. M., Smith, R. A. & Murphy, M. P. Fine-tuning the hydrophobicity of a mitochondria-targeted antioxidant. FEBS Letts. 571, 9-16 (2004)). Respiration rates were measured in a Clark type O2 electrode (Rank Brothers, UK). To measure GSH and GSSG, mitochondria (1 mg protein/ml) were incubated with 0-10 μM MitoSNO1 or MitoNAP for 10 min, pelleted by centrifugation and the GSH and GSSG contents assessed by the recycling assay (Scarlett, J. L., Packer, M. A., Porteous, C. M. & Murphy, M. P. Alterations to glutathione and nicotinamide nucleotides during the mitochondrial permeability transition induced by peroxynitrite. Biochem. Pharmacol. 52, 1047-1055 (1996)). The measurement of exposed mitochondrial protein thiols is described below.\nRat liver mitochondria (1 mg protein/ml) in KCl buffer was incubated at 37° C. with 5 μM MitoSNO. 1 μM additions of MitoSNO were made sequentially before addition of 10 mM succinate. 200 nM FCCP was then added to uncouple the mitochondria. The concentrations of O2 and MitoSNO in solution were measured simultaneously using a Clark-type O2 electrode in combination with an ion-selective electrode for triphenylphosphonium cation (TPP^+). […] This can be seen in FIG. 3.\nWhen succinate was added, the mitochondria started respiring and set up a Δψ, which caused a decrease in the MitoSNO concentration, as detected by the ion-selective electrode (FIG. 3). When the mitochondria were uncoupled by FCCP, a concomitant increase in the concentration of MitoSNO, or its derivatives, in the medium was detected by the ion-selective electrode. The amount of MitoSNO taken up into the mitochondria from the trace in FIG. 3 corresponds to ˜2.5 μM of the initial external concentration of 5 μM. Therefore 7.5 nmol MitoSNO have been taken up into 3 mg protein, and as the mitochondrial volume is ˜0.5 μl/mg protein (Brown, G. C. and Brand, M. D. Biochem J., 1985, 225, 399-405), the concentration of MitoSNO within mitochondria is ˜5 mM. This represents a 2000 fold concentration relative to the 2.5 μM present in the external medium, and is consistent with a Nernstian uptake of MitoSNO."}, "liver mitochondria [2]": {"test_system": "liver mitochondria", "test": "Exposed protein thiols, glutathionylation and GSH/GSSG in liver mitochondria", "assay_type": "biochemical, rat", "details": "mitochondria; MitoSNAP 5 μM", "procedure": "as §1\nSmall molecules were removed by centrifugation through MicroBioSpin Columns (cut off=6 kDa), the eluate was clarified by centrifugation (2 min at 10,000×g) and protein thiols measured in triplicate by mixing 10 μl sample or GSH standard with 160 μl of 200 μM dithionitrobenzoic acid (DTNB) in 80 mM NaPi, 1 mM EDTA, pH 8 in a 96 well plate and absorbance at 412 nm was measured after 30 min at room temperature and the thiol content determined from the GSH standard curve. The protein concentration was measured in parallel by the bicinchonininc assay using BSA as a standard.\nThe interaction of MitoSNAP with mitochondrial thiol proteins is likely to initiate a dynamic process that may lead to other protein thiol modifications, such as disulfide formation, glutathionylation, sulfenylation or sulfenylamide formation, in addition to persistent S-nitrosation. To assess these, the content of reactive, solvent-exposed thiols on native liver mitochondrial proteins was measured. […] This is consistent with the finding that the maximum extent of mitochondrial protein S-nitrosation by 5 μM MitoSNAP (˜500 pmol SNO/mg protein; FIG. 11) was only ˜1% of the total number of protein thiols available. A small amount of MitoSNAP binding to mitochondrial thiol proteins through the formation of mixed disulfides was detectable by immunoblotting."}, "[3]": {"test_system": "liver or heart mitochondria", "test": "Visualisation of S-nitrosated mitochondrial proteins by Cy3 maleimide labelling", "assay_type": "biochemical, rat", "details": "10 μM MitoSNAP or 500 μM diamide, 5 min", "procedure": "FIG. 11 is a series of graphs showing S-nitrosation of mitochondrial thiols by MitoSNAP. (a) Time course of S-nitrosation of mitochondrial proteins by MitoSNAP. Liver mitochondria (1 mg protein) were incubated in 1 ml KCl buffer supplemented with rotenone and succinate in the presence of 5 μM MitoSNAP. At various times mitochondria were treated with 10 mM N-ethylmaleimide (NEM), isolated by centrifugation and the S-nitrosothiol content assessed. Data are of a typical experiment showing means±range of duplicate samples for each time point, each measured in duplicate. The experiment was repeated twice. (b) S-nitrosation of mitochondrial proteins by different concentrations of MitoSNAP and SNAP. Aliquots of liver mitochondria were incubated with the indicated concentrations of MitoSNAP or SNAP for […] in the presence or absence of 500 nM FCCP and then assessed for S-nitrosothiol content as in (a). […] Data are of a typical experiment showing means±range of duplicate samples for each time point, each measured in duplicate. […] After further incubation for 5 min at 37° C. in the dark, the medium was removed and the content of S-nitrosated proteins was measured. […] S-nitrosated thiols were then selectively tagged with Cy3 maleimide and protein (10 μg) was then separated on a 12.5% SDS PAGE gel which was stained with coomassie blue and scanned for Cy3 fluorescence. […]"}, "HeLa cells": {"test_system": "HeLa cells", "test": "Cell hypoxia experiment, extracellular pO2 by fluorescence quenching oximetry", "assay_type": "cell-based", "details": "1% O2, 30 min incubation, compared to untreated controls", "procedure": "FIG. 10 is a series of traces and graphs showing the effect of MitoSNAP on respiration in cells. (a-d) Jurkat cells (55×10^6 cells) were incubated in PBS supplemented with 25 mM Hepes pH 7.2 (NaOH), 1 mM sodium pyruvate, 10 μM neocuproine and 100 μM DTPA in the stirred 2.5 ml chamber of an oxygen electrode at 37° C. with 5 μM MitoSNAP (a), MitoNAP (b), SNAP (c) or MitoSNAP and FCCP (500 nM) (d). Where indicated 5 μM OxyHb was added. Traces show typical experiments that were repeated at least three times. Sections of the 02 electrode trace where OxyHb was added for (a) and (b) have been expanded 4-fold in the vertical dimension to facilitate inspection. […] Cellular pO2 values, measured by fluorescence quenching oximetry and expressed as mean±sd, are shown. […]\nHeLa cells were seeded and grown to 100% confluence with 15 ml medium/dish on 165 cm^2 dishes. […] Extracellular pO2 measurements were taken by fluorescence quenching oximetry (Oxylite-2000; Oxford Optronix). […]\nTo evaluate the selective uptake of MitoSNAP by mitochondria within cells, the effect of MitoSNAP on respiration by Jurkat cells, a T lymphocyte cell line that grows in suspension, was measured using an O2 electrode (FIG. 10). […] Then the effects of a further 30 min incubation with MitoSNAP, MitoNAP or the mitochondrial inhibitor myxathiazol on the steady-state extracellular pO2 was assessed by fluorescence quenching oximetry (FIG. 10e)."}}, "data": [{"compound": "NCCN(CCN)/[N+]([O-])=N/O", "note": "[Deta-NONOate, 3,3-bis(aminoethyl)-1-hydroxy-2-oxo-1-tri azene, reference compound]", "values": [{"measurement": "NO concentration generated compared with 5 μM MitoSNAP", "setting": "liver mitochondria [1]", "result": "five to ten-fold greater"}, {"measurement": "S-nitrosation less than that caused by 5 μM MitoSNAP", "setting": "liver mitochondria [1]", "result": "~30", "unit": "fold"}, {"measurement": "S-nitrosation of mitochondrial proteins", "setting": "liver mitochondria [1]; 5 min", "result": "~20", "unit": "pmol SNO/mg protein"}]}, {"compound": "O=NSCCCC[P+](c1ccccc1)(c1ccccc1)c1ccccc1.[Br-]", "note": "[MitoSNO]", "values": [{"measurement": "amount taken up into 3 mg protein", "setting": "rat liver mitochondria; 5 μM MitoSNO, succinate", "result": 7.5, "unit": "nmol"}, {"measurement": "uptake by isolated mitochondria", "setting": "rat liver mitochondria; energized with 10 mM succinate, reversed by FCCP", "result": "taken up by isolated mitochondria"}, {"measurement": "concentration within mitochondria", "setting": "rat liver mitochondria; mitochondrial volume ~0.5 μl/mg protein", "result": "~5", "unit": "mM"}, {"measurement": "amount taken up into the mitochondria, as part of the initial external concentration of 5 μM", "setting": "rat liver mitochondria; rat liver mitochondria 1 mg protein/ml, 5 μM MitoSNO, succinate", "result": "~2.5", "unit": "µM"}, {"measurement": "effect on mitochondrial respiration", "setting": "rat liver mitochondria; rat liver mitochondria, 5 μM MitoSNO", "result": "inhibited respiration by NO release"}, {"measurement": "concentration relative to the external medium", "setting": "rat liver mitochondria; relative to 2.5 μM in the external medium", "result": 2000, "unit": "fold"}]}, {"compound": "CN(C)C(=O)/N=N/C(=O)N(C)C", "note": "[diamide, reference compound]", "values": [{"measurement": "protein-glutathione mixed disulfides (glutathionylation)", "setting": "liver mitochondria [2]", "result": "extensive glutathionylation"}, {"measurement": "Cy3 labelling of S-nitrosated proteins", "setting": "[3]", "result": "did not label proteins"}]}, {"compound": "CO/C(=C/C(N)=O)[C@H](C)[C@H](/C=C/c1csc(-c2csc([C@@H](C)/C=C/C=C/C(C)C)n2)n1)OC", "note": "[myxathiazol, reference compound]", "values": [{"measurement": "effect on steady-state extracellular pO2 during hypoxia", "setting": "HeLa cells", "result": "increased extracellular O2"}]}]}
